Blank lines part the entries; values can stand above or below the compound they belong to.
How the values were obtained:
[1] = molecular target: T1, ATAD2 recombinant bromodomain protein (Homo sapiens, UniProt Q6PL18); test: ATAD2 enzymatic assay by TR-FRET technology; format: binding; settings: TR-FRET; for IC50: mean ± SD, read-out: Kinase inhibitory activity (IC50, μM) ATAD2
T1 sequence (Q6PL18 980-1092 limits assumed): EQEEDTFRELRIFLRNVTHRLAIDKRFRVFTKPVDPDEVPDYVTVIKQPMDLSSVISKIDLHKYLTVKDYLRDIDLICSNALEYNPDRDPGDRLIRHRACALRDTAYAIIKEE
Protocol: The assay was performed by TR-FRET technology using recombinant bromodomain and BET Ligand[8]. The compounds were diluted with indicated folds in 5% DMSO in reaction buffer and 2 µl of the dilution was added to a 20 µl reaction so that the final concentration of DMSO is 0.5% in all of the reactions. The 20 µl reaction mixture consists of the ATAD2 recombinant bromodomain protein, the indicated amount of the inhibitor, ligand, and the reactive dyes. The reaction mixture was incubated for 3 h before reading the TR-FRET signal. Fluorescence signals for both the donor and acceptor dyes were measured using a Tecan Infinite M1000 plate reader. Binding experiments were performed in duplicate at each concentration and the data were analysed using GraphPad Prism.

BT-549 cells [2] = test: Cell viability (MTT) assay, anti-proliferative activity; format: cell-based; settings: for IC50: Homo sapiens, MTT, 24 h, mean ± SD
Protocol: BT-549 cells were seeded at a density of 5 × 10^4 cells/ml in a 96-well plate. Following a 24-h incubation period, the cells were exposed to various concentrations of different compounds for the specified durations. Cell viability was evaluated using an MTT assay.

[3] = tested on: ATAD2, c-Myc, and p-c-Myc^Ser62 in BT-549 cells; test: Western blot of ATAD2, c-Myc and p-c-Myc Ser62; format: cell-based; settings: BT-549 cells, 5, 10, 20 μM, 48h
Protocol: (§1) Cells were exposed to AM879, BAY-850 or compound 19f for the specified time intervals. Both adherent and floating cells were harvested and subsequently resuspended in a lysis buffer, followed by incubation at 4 °C for 1 h. Following centrifugation at 12,000 rpm for 20 min, the protein content of the supernatant was quantified using the BCA protein assay. Then protein were separated by 8–15% SDS-PAGE and transferred onto PVDF membranes. The membranes were blocked with blocking buffer and subjected to primary antibody incubation, followed by incubation with HRP-conjugated secondary antibody. Protein detection was achieved using ECL as the HRP substrate.

ATAD2 = settings: cited from earlier work
MDA-MB-231 cells [4] = tested on: MDA-MB-231 cells; parameters: method as in PMID 32174193; settings: read-out: antiproliferative activity IC50 in MDA-MB-231 cells; cited from earlier work
BT-549 cells [5] = test: Apoptosis assay, Annexin-V/PI double staining; format: cell-based; settings: BT-549 cells, 5, 10, 20 μM, 48h
Source text: To assess apoptosis, BT-549 cells were exposed to varying concentrations of compound 19f, and apoptosis ratios were quantified via Annexin-V/PI double staining.

[6] = tested on: p-c-Myc^Ser62 in BT-549 cells; test: Immunofluorescence of p-c-Myc Ser62; format: cell-based; settings: 48h
Protocol: To prevent non-specific antibody binding, BT-549 cells were treated with a blocking buffer (PBS +1.5% goat serum) prior to immunofluorescence staining. The cells were subsequently incubated with a p-c-Myc^Ser62 antibody (1:200) diluted in blocking buffer and allowed to incubate overnight at 4 °C. Afterward, the cells were further incubated with fluorescent-labelled secondary antibodies for 1 h at room temperature.

BT-549 cells [7] = test: EdU-488 newly synthesised DNA assay; format: cell-based; settings: BT-549 cells, 5, 10, 20 μM, 48h
BT-549 cells [8] = test: Colony formation assay; format: cell-based
BT-549 cells [9] = test: 3D cell culture, cell sphere diameter; format: cell-based
Protocol: For 3D cell culture, 10,000 cells were placed in 96-well spherical plates for 24h and treated with different concentrations of compound 19f, […] or AM879. The diameter of the cell balls was measured by photographing.

MDA-MB-231 cells [10] = test: Cell viability (Figure S1); format: cell-based
MCF-10A cells = test: Cell viability (Figure S1), normal breast cells; format: cell-based
[11] = tested on: Bax, Bcl-2, Caspase-3, Caspase-8, Caspase-9, and PARP in BT-549 cells; test: Western blot of apoptotic marker proteins; format: cell-based; settings: BT-549 cells, 5, 10, 20 μM, 48h
Protocol: as §1

BT-549 cells [12] = test: Wound healing assay; format: cell-based; settings: BT-549 cells, 2.5, 5, 10, 20 μM, 48h
BT-549 cells [13] = test: Transwell migration assay; format: cell-based; settings: BT-549 cells, 5, 10, 20 μM, 48h
Protocol: BT-549 cells were seeded into the upper chamber of a Transwell insert at a density of 15,000 cells per well. The cells were treated with either DMSO or compound 19f for 48 h, after which non-migrated cells were removed from the upper surface, while the migrated cells were stained with crystal violet. Then, the cells were washed with PBS and imaged using a phase-contrast microscope.

[14] = tested on: MMP-2 and E-cadherin in BT-549 cells; test: Western blot of migration markers; format: cell-based; settings: BT-549 cells, 5, 10, 20 μM, 48h
Protocol: as §1

IC50 [1]: 3.49 ± 0.77 µM
IC50 (BT-549 cells [2]): 4.79 ± 0.52 µM
Structure (SMILES): CC1=C(C#N)c2nc(N)c(C#N)cc2/C1=C\c1ccc(-c2cc(C(=O)O)ccc2Cl)o1 [AM879]
expression levels of c-Myc and p-c-Myc Ser62 (western blot) [3]: inhibited the expression levels of c-Myc and p-c-Myc^Ser62 in a dose-dependent manner
expression of ATAD2 (western blot) [3]: no significant effect on the expression of ATAD2
IC50 (ATAD2): 3.5 µM
IC50 (MDA-MB-231 cells [4]): 2.43 µM

IC50 [1]: 0.27 ± 0.05 µM
IC50 (BT-549 cells [2]): 5.43 ± 0.71 µM
Structure (SMILES): COc1ccc(C(=O)NC2CCCC2)cc1NC(=O)Cn1cnc2c(=O)n(C)c(=O)n(C)c21 [Compound 19f, N-cyclopentyl-3–(2-(1,3-dimethyl-2,6-dioxo-1,2,3,6-tetrahydro-9H-purin-9-yl)acetamido)-4-methoxybenzamide]
ATAD2 inhibitory activity, in words [1]: weaker ATAD2 inhibitory activity compared with BAY-850, but a stronger ATAD2 inhibitory activity than AM879
anti-proliferative activity in BT-549 cells, in words (BT-549 cells [2]): anti-proliferative activity comparable to BAY-850 and AM879
antiproliferative activity relative to the positive drug BAY-850 (BT-549 cells [2]): about one-fold weaker
apoptosis induction, in words (BT-549 cells [5]): induce obvious apoptosis in a dose-dependent manner
p-c-Myc Ser62 level compared with AM879 and BAY-850 ([6]; BT-549 cells, 10 μM): more significant impact on p-c-Myc^Ser62 level than AM879, and a similar result to the BAY-850
fluorescence intensity of p-c-Myc Ser62 ([6]; BT-549 cells, 5, 10, 20 μM): reduce the fluorescence intensity of p-c-Myc^Ser62 in a dose-dependent manner
expression levels of c-Myc and p-c-Myc Ser62 (western blot) [3]: inhibited the expression levels of c-Myc and p-c-Myc^Ser62 in a dose-dependent manner
expression of ATAD2 (western blot) [3]: no significant effect on the expression of ATAD2
fluorescence intensity of EdU-488 (BT-549 cells [7]): reduce the fluorescence intensity of EdU-488 in a dose-dependent manner
colony formation ability (BT-549 cells [8]): inhibit the colony formation ability of BT-549 cells in a concentration-dependent manner
diameter of 3D tumour cell spheres (BT-549 cells [9]): dose-dependently reduce the diameter of the 3D tumour cell spheres
anti-proliferative activity in MDA-MB-231 cells, in words (MDA-MB-231 cells [10]): good anti-proliferative activity
cytotoxicity to normal breast MCF-10A cells (MCF-10A cells): did not show obvious cytotoxicity
cleavage of caspase-8 [11]: the cleavage of caspase-8 was not changed significantly
expression of Bax, cleavage of caspase-3, caspase-9 and PARP [11]: promoted the expression of Bax, the cleavage of caspase-3, caspase-9 and PARP
expression of Bcl-2 [11]: the expression of Bcl-2 was significantly decreased
relative wound area (BT-549 cells [12]): increased the relative wound area in a dose-dependent manner
migrated cell number (BT-549 cells [13]): decreased the migrated cell number in a dose-dependent manner
expression of E-cadherin and MMP-2 [14]: up-regulated the expression of E-cadherin and down-regulated MMP-2
